According to ChEMBL document CHEMBL1132498, “Increased antiviral activity of cyclic urea HIV protease inhibitors by modifying the P1/P1' substituents” (Bioorg Med Chem Lett, 1999):

Experiments:
[1] = test system: Human immunodeficiency virus 1; experiment: Inhibitory activity was determined by measuring accumulation of viral RNA transcript after infection of cells with HIV-1; type: functional
[2] = target: Human immunodeficiency virus type 1 protease (Human immunodeficiency virus 1, UniProt Q72874); experiment: Binding affinity for HIV protease
[3] = Translatory activity was evaluated as ratio of Ki and IC90 *10e-5; type: functional

| Compound | IC90 [1] [nM] | Ki [2] [nM] | Translation [3] |
| --- | --- | --- | --- |
| CC(C)c1ccc(C[C@@H]2[C@H](O)[C@@H](O)[C@@H](Cc3ccc(C(C)C)cc3)N(Cc3ccc4[nH]nc(N)c4c3)C(=O)N2Cc2ccc3[nH]nc(N)c3c2)cc1 | 410 | 0.19 | 46 |
| CCc1ccc(C[C@@H]2[C@H](O)[C@@H](O)[C@@H](Cc3ccc(CC)cc3)N(Cc3ccc4[nH]nc(N)c4c3)C(=O)N2Cc2ccc3[nH]nc(N)c3c2)cc1 | 300 | 0.068 | 23 |
| CC(C)(C)c1ccc(C[C@@H]2[C@H](O)[C@@H](O)[C@@H](Cc3ccc(C(C)(C)C)cc3)N(Cc3ccc4[nH]nc(N)c4c3)C(=O)N2Cc2ccc3[nH]nc(N)c3c2)cc1 | 100 | 0.19 | 190 |
| Cc1cc(C)cc(C[C@@H]2[C@H](O)[C@@H](O)[C@@H](Cc3cc(C)cc(C)c3)N(Cc3ccc4[nH]nc(N)c4c3)C(=O)N2Cc2ccc3[nH]nc(N)c3c2)c1 | 540 | 0.067 | 12 |
| Cc1ccc(C[C@@H]2[C@H](O)[C@@H](O)[C@@H](Cc3ccc(C)cc3)N(Cc3ccc4[nH]nc(N)c4c3)C(=O)N2Cc2ccc3[nH]nc(N)c3c2)cc1 | 780 | 0.061 | 8 |
| CC(C)(C)c1cccc(C[C@@H]2[C@H](O)[C@@H](O)[C@@H](Cc3cccc(C(C)(C)C)c3)N(Cc3ccc4[nH]nc(N)c4c3)C(=O)N2Cc2ccc3[nH]nc(N)c3c2)c1 | 390 | 0.21 | 54 |
| Nc1n[nH]c2ccc(CN3C(=O)N(Cc4ccc5[nH]nc(N)c5c4)[C@H](Cc4ccccc4)[C@H](O)[C@@H](O)[C@H]3Cc3ccccc3)cc12 | – | < 0.01 | – |
| CCCCc1ccc(C[C@@H]2[C@H](O)[C@@H](O)[C@@H](Cc3ccc(CCCC)cc3)N(Cc3ccc4[nH]nc(N)c4c3)C(=O)N2Cc2ccc3[nH]nc(N)c3c2)cc1 | 180 | 0.17 | 94 |
| Nc1[nH]nc2ccc(CN3C(=O)N(Cc4ccc5n[nH]c(N)c5c4)[C@H](Cc4ccccc4)[C@H](O)[C@@H](O)[C@H]3Cc3ccccc3)cc12 | 2760 | – | < 0.36 |
| CCCc1ccc(C[C@@H]2[C@H](O)[C@@H](O)[C@@H](Cc3ccc(CCC)cc3)N(Cc3ccc4[nH]nc(N)c4c3)C(=O)N2Cc2ccc3[nH]nc(N)c3c2)cc1 | 290 | 0.068 | 23 |
| Cc1ccc(C)c(C[C@@H]2[C@H](O)[C@@H](O)[C@@H](Cc3cc(C)ccc3C)N(Cc3ccc4[nH]nc(N)c4c3)C(=O)N2Cc2ccc3[nH]nc(N)c3c2)c1 | 300 | 0.034 | 11 |
| Cc1cccc(C[C@@H]2[C@H](O)[C@@H](O)[C@@H](Cc3cccc(C)c3)N(Cc3ccc4[nH]nc(N)c4c3)C(=O)N2Cc2ccc3[nH]nc(N)c3c2)c1 | 740 | 0.011 | 1.5 |
